These results are taken from patent publication EP0330826A2, “Use of pyridin-2-ethers or pyridin-2-thioethers with a nitrogen-containing cycloaliphatic ring as agents with an antidepressant activity” (ASTA Pharma Aktiengesellschaft, priority 1988, dated 1989).

This assay can be described thus: Swimming test according to Porsolt (forced swim, motor activity / immobility phases). The settings on record: Ratte; for minimal effective dose: read-out: niedrigste, bereits wirksame Dosis. The format is in vivo. The source says:
Die erfindungsgemäßen Verbindungen der Formel I zeigen zum Beispiel im Schwimm-Test nach Porsolt eine gute dosisabhängige antidepressive Wirkung.
Der Schwimm-Text an der Ratte erfolgt in Anlehnung an die Methode von Porsolt (Porsolt, R.D., A. Bertin and M. Ialfre, 1977, Behavioral despair in mice, Arch. Intern. Pharmacodyn. Ther. 229, 327): Hierzu werden Ratten einzeln in einen mit Wasser gefüllten Plastikbehälter gesetzt. Die Höhe des Behälters ist 30 cm, die Länge beträgt 35 cm und die Breite 20 cm. Das Wasser hat eine Temperatur von 25° C und die Tiefe ist 20 cm. Die Schwimmaktivitäts- beziehungsweise die Immobilisationsphasen der Tiere werden mit Hilfe eines motor activity meters über 15 Minuten in einem Abstand von 1 Minute (Impulse/Min.) registriert. Im Normalfall (das heißt ohne Antidepressivum) machen die Tiere nur für kurze Zeit Schwimmbewegungen und lassen sich dann treiben. Die Zunahme der Aktivitäts- beziehungsweise Abnahme der Immobilisationsphasen (die Tiere schwimmen nicht, sondern lassen sich treiben) gilt als Maß für die antidepressive Wirkung einer Substanz. Die antidepressive Wirkung wird als Wirkung in % für eine bestimmte Dosis antidepressive Wirksubstanz angegeben bezogen auf eine Kontrollgruppe, die keine Wirkstubstanz bekommen hat.

Where two headings read alike, the source gives them in different places.

With `Clc1cccc(SC2CCNCC2)n1` [Anpirtolin, 6-Chlor-2-piperidyl-(4)-thio-pyridin], for the setting “Dosis 6 mg/kg Körpergewicht, intraperitoneale Applikation, relative to control group without active substance”, the “antidepressive Wirkung (Wirkung in %)” value is 50%. Also, the minimal effective dose turned out to be 20 mg/kg (oral) and 0.5 mg/kg (iv, intravenös).
